Reference: patent publication US7678913B2, “Ureas as factor Xa inhibitors” (Portola Pharmaceuticals, Inc., priority 2004, dated 2010)

Target: T1, human plasma protein factor Xa (Homo sapiens, UniProt P00742)
T1 construct: measure proteolytic activity of the enzyme (factor Xa); purchased Haematologic Technologies (Essex Junction, Vt.); host or cells: human plasma
Assay: Factor Xa IC50 determination (cleavage of chromogenic substrate S-2765)
Assay type: biochemical
Details: fXa 1 nM, S-2765 100 μM, Tris buffered saline pH 7.4, room temperature
Method in brief: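 Human plasma factor Xa (1 nM) preincubated 5 min at room temperature with inhibitor (0.01 nM–10 μM final) in Tris-buffered saline pH 7.4 with CaCl2, BSA and 5% DMSO. S-2765 added at 100 μM; pNA release at 405 nm over 2 min; initial velocities fitted to four-parameter equation for IC50, duplicates.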

T1 sequence (P00742 235-488 limits assumed): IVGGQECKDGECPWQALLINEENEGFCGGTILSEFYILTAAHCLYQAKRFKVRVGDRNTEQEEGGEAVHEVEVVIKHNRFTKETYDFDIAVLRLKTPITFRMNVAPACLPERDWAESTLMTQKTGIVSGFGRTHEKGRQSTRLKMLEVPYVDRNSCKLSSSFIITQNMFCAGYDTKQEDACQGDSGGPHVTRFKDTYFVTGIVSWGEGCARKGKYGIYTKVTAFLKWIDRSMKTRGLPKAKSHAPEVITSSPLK
T1 sequence (P00742 41-179 partner limits assumed): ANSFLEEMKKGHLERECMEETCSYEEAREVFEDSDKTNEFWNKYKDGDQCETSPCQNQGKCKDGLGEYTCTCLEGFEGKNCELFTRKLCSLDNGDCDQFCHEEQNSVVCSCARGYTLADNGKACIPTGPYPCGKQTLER

IC50: ≥ 500 nM
Structure (SMILES): CN1CCC(N2CCCN(C(=O)[C@H](NC(=O)Nc3ccc(Cl)cc3)c3ccccc3)CC2)CC1 [Example 156, (2R) 4-(1-methylpiperidin-4-yl)homopiperazin-1-yl-2-phenyl-2-(4-chlorophenylaminocarbonylamino)-acetamide]
